Results as given in patent US20120107323A1, “KINASE PROTEIN BINDING INHIBITORS” (University of Florida, priority 2009, published 2012).

Tests used:
C8161 melanoma cells = test: Cell viability (MTT), C8161; type: cell-based, human
Method: (§1) Cell viability (MTT) and CFSE Proliferation assay: Cells were plated in 96-well plates and let adhere overnight. After cell treatment, cell viability was measured by 3-(4,5-dimethylthiazol-2-yl)-2,5-diphenyl tetrazolium bromide (MTT) assay (CellTiter 96® Aqueous, Promega, Madison, Wis.).
(§2) Cell viability and detachment assays: After cells were treated with siRNA transfection, cell viability was measured by 3-(4,5-dimethylthiazol2-yl)-2,5-diphenyl tetrazolium bromide (MTT) assay (CellTiter 96® AQueous, Promega, Madison, Wis.). Briefly, 20 μl of the tetrazolium compound was added to each well. The cells were then incubated at 37° C. for 1 h. The plate was read at 490 nm with a plate reader to determine the viability. In detachment assays, detached and attached cells were harvested separately and counted in a hemocytometer. The percentage of detachment was calculated by dividing the number of detached cells by the total number of cells. Apoptosis assays: After treatment, attached and detached cells were collected, counted and prepared for terminal uridine deoxynucleotidyl transferase (TUNEL) assay by utilizing an APO-BRDU kit (BD Pharmingen, San Diego, Calif.) according to the manufacturer's instructions. Stained cells were analyzed with a fluorescence-activated cell sorting-Calibur flow cytometer (BD Biosciences). Calculation of the percentage of apoptotic cells in the sample was completed with CellQuest software (BD Biosciences). Apoptotic cells were also analyzed by Hoechst staining. Hoechst 33342 ([…]) was added to the fixed cells and the specimens were mounted on glass coverslips. The slides were viewed under the Zeiss microscope for apoptotic nuclei. The percent of apoptotic cells was calculated as the ratio of apoptotic cells to total number of cells.
In addition, the effect of INT2-31 on cell viability of esophageal, pancreatic and breast cancer cell lines was analyzed and the IC50 value for each cell line was determined, as shown in Table 1. […] Similar to melanoma results, INT2-31 inhibits viability more in cancer cells compared to normal cells. Sensitivity of the cells to INT2-31 varied and directly correlated to the FAK and IGF-1R expression level of the cells.
To determine the effect on melanoma cell viability, three human melanoma cell lines were exposed to increasing doses of INT2-31 for 72 h and the results compared to human melanocytes. […] The effects of INT2-31 varied in the three cell lines and was possibly related to constitutive FAK and IGF-1R activation with the least sensitive cell line (SK-MEL-28) having the greatest expression of FAK and IGF-1R.

IGF-1R+/+ and −/− MEFs = test: MTT assay on IGF-1R wildtype and null fibroblasts; type: cell-based, mouse
Method: as §1
Cell proliferation assay: Cell proliferation assay (Promega) using CellTiter 96 aqueous one solution was performed by adding a small amount of the One Solution Reagent directly to culture wells, incubating for 1-4 hours and then recording absorbance at 490 nm with a spectrophotometric plate reader. The quantity of formazan product as measured by the amount of 490 nm absorbance was directly proportional to the number of living cells in culture.
as §2

[1] = tested on: insulin receptor, VEGFR-1, AKT-1, EGFR, VEGFR-2, c-MET, PDGFRa, p70S6K, Src and PI3Kinase; test: Kinase profiler screening, other protein kinases; type: biochemical; conditions: 1 μM compound
Method: Kinase Profiler Screening: Kinase specificity screening was performed with Invitrogen's SelectScreen® Kinase Profiling Services http://www.invitrogen.com/site/us/en/home/Products-and-Services/Services/Discoverv-Research/SelectScreen-Profiling-Service/SelectScreen-Kinase-Profiling-Service.html. The screening was performed with 1 μM compound, INT2-31, 10 μM ATP, and kinase substrates against ten recombinant kinases according to Z′-LYTET™ Kinase Assay. For PI3 kinase activity, 100 μM ATP, and kinase substrate were utilized with the Invitrogen Adapta® Universal Kinase Assay protocol. Tumor Growth in Nude Mice in vivo: Six week old athymic, female nude mice were purchased from Harlan Laboratory. The mice were maintained in the animal facility, and all experiments were performed in compliance with NIH animal-use guidelines and under an IACUC approved protocol. Melanoma cells were injected, 5×10^6 cells, subcutaneously. When the tumor size reached 100 mm^3, the INT2-31 was introduced by intraperitoneal injection at a dose of 15 mg/kg daily for 21 days. Tumor diameters were measured with calipers, and tumor volume in mm^3 was calculated using the formula [(width)^2×length]/2. At the end of experiment, tumor weight and volume were determined.

[2] = Previous toxicity testing at 50 mg/kg/day; type: in vivo, mice; conditions: 50 mg/kg/day i.p.

Compound: CSc1ncnc2c1ccn2C1O[C@H](COP(=O)(O)O)[C@@H](O)[C@H]1O (stereo partly drawn) [INT2-31, 4-(Methylthio)-7-(5-O-phosphono-D-ribofuranosyl)-{7H-Pyrrolo[2,3-d]pyrimidine}]
- cell viability (in words) (C8161 melanoma cells; C8161, MTT): inhibited cell viability in a dose-dependent manner
- IC50 (C8161 melanoma cells; Homo sapiens, C8161, 72 hours, read-out: IC50 of INT2-31, cell viability): 500 nM
- sensitivity of C8161 cells expressing FAK shRNA compared to parental and mock transfected cells (C8161 melanoma cells; MTT, FAK shRNA1 knockdown): significantly less sensitive
- proliferation of IGF-1R+/+ fibroblast cells (IGF-1R+/+ and −/− MEFs; 0.05 μM, 72-hour treatment): reduced the proliferation
- proliferation of IGF-1R−/− cells (IGF-1R+/+ and −/− MEFs; 0.05 μM, 72-hour treatment): no effect
- effect on IGF-1R wildtype compared to null fibroblasts (IGF-1R+/+ and −/− MEFs; MTT, p<0.05): significantly less sensitive
- inhibition of any of the other protein kinases [1]: ≤ 22%
- toxicity [2]: no measurable toxicity
